The source of these data is patent US8252814B2, “Agents and crystals for improving excretory potency of urinary bladder” (priority 1998, dated 2012).

Data set [1] deals with T1, human erythrocyte-derived acetylcholine esterase (Homo sapiens, UniProt P22303).
T1 construct: Acetylcholinesterase of human erythrocyte origin (Sigma Chemical Co.); purchased Sigma Chemical Co; host or cells: human erythrocytes (natural source)
Briefly: Determination of the activity to inhibit the acetylcholine esterase of the crystals (Ellman method), Experimental Example 5. The data set is classed as biochemical. To be noted: at least three experiments. As to the method: The activity to inhibit the acetylcholine esterase of the crystals obtained in Example 1 was determined according to the acetylthiocholine method (the Ellman method) by the use of a human erythrocyte-derived acetylcholine esterase.
A human erythrocyte-derived acetylcholine esterase (Sigma Chemical Company) was dissolved into distilled water to obtain a standard enzyme preparation with an enzyme concentration of 0.2 IU/mL. […]
The activity to inhibit the acetylcholine esterase of the crystals obtained in Example 1 was determined according to the acetylthiocholine method (the ElIman method) by the use of a human erythrocyte-derived acetylcholine esterase.
A human erythrocyte-derived acetylcholine esterase (Sigma Chemical Company) was dissolved into distilled water to obtain a standard enzyme preparation with an enzyme concentration of 0.2 IU/mL. […] As soon as 50 μl of a 4-mM solution of acetylthiocholine iodide (Sigma Chemical Company) was added and shaking was started again, every increment in absorbance at the wavelength of 414 nm at an interval of 30 seconds was determined for 10 minutes. R=5.74×10^−7×ΔA (wherein R indicates an enzyme activity (mol) and ΔA indicates an increment in absorbance at the wavelength of 414 nm). […] Furthermore, the activity to inhibit the acetylcholine esterase of distigmine was determined in a manner similar to that described in the above method.

Data set [2] is described as follows: Stability test, Experimental Example 7. In kind it is physicochemical. The method, then: A number of specimens of the crystals obtained in Example 1 were stored under the following conditions and then their changes in the property and the remaining percent were determined.
Storing conditions: 1. 60° C. for 3 months (in a brown glass bottle, closed); 2. 45° C., the relative humidity of 75% for 3 months (in a brown glass bottle, closed); 3. 40° C., the to relative humidity of 75% for 3 months (in a brown glass bottle, opened); 4. irradiated with a xenon lamp (60000 lux) for 20 hours (1.2 million lux/hour) (on a Petri dish covered with a polyvinylidene chloride film).

pIC50: −log10 of the molar value.

T1 sequence (P22303 32-617 isoform P22303-2 limits assumed): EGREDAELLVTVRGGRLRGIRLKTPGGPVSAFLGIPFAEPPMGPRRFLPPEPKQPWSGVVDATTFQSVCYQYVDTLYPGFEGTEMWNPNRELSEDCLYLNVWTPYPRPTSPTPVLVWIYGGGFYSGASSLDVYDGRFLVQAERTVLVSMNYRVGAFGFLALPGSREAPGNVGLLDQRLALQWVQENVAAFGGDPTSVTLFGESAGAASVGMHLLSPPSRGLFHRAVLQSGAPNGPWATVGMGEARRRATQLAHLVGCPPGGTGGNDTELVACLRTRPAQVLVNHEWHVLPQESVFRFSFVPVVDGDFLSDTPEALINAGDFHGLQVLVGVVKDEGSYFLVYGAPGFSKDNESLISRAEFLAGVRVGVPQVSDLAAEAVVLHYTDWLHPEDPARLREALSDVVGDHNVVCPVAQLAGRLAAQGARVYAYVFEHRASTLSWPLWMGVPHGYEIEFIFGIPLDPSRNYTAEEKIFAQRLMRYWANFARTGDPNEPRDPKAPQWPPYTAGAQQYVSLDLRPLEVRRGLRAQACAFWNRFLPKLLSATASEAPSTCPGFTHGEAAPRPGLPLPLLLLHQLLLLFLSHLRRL

What is called pIC50 is the IC50 on a negative log10 scale, so that one unit is a factor of ten. `O=C(CCC1CCN(Cc2cccc(F)c2)CC1)c1cc2c3c(c1)CCN3C(=O)CC2` [Example 1, 8-[3-[1-[(3-fluorophenyl)-methyl]-4-piperidinyl]-1-oxopropyl]-1,2,5,6-tetrahydro-4H-pyrrolo-[3,2,1-ij]quinolin-4-one] had a pIC50 in data set [1] of 8.18. Further, the “Remaining percent (%)” value stood at 99.8% in data set [2] (storing condition 1 (60° C./3 months), brown glass bottle, closed); 101.6% in data set [2] (storing condition 2 (40° C./75% RH, closed), 3 months, brown glass bottle); 100.2% in data set [2] (storing condition 3 (40° C./75% RH, open), 3 months, brown glass bottle); 100.1% in data set [2] (storing condition 4 (Xenon lamp/20 hs.), 60000 lux). The “stability (in words)” value in data set [2] (storing conditions 1 to 4) was “any change in the property and any decrease in the remaining percent were not observed”.
